Source: ChEMBL document CHEMBL1909046, “DrugMatrix in vitro pharmacology data”

Assays:
Cytochrome P450 3A4 = Cytochrome P450 3A4 (Homo sapiens, UniProt P08684)
Cytochrome P450 2C19 = Cytochrome P450 2C19 (Homo sapiens, UniProt P33261)
Androgen receptor = molecular target: T1, Androgen receptor (Rattus norvegicus, UniProt P15207)
T1 sequence (P15207 whole entry): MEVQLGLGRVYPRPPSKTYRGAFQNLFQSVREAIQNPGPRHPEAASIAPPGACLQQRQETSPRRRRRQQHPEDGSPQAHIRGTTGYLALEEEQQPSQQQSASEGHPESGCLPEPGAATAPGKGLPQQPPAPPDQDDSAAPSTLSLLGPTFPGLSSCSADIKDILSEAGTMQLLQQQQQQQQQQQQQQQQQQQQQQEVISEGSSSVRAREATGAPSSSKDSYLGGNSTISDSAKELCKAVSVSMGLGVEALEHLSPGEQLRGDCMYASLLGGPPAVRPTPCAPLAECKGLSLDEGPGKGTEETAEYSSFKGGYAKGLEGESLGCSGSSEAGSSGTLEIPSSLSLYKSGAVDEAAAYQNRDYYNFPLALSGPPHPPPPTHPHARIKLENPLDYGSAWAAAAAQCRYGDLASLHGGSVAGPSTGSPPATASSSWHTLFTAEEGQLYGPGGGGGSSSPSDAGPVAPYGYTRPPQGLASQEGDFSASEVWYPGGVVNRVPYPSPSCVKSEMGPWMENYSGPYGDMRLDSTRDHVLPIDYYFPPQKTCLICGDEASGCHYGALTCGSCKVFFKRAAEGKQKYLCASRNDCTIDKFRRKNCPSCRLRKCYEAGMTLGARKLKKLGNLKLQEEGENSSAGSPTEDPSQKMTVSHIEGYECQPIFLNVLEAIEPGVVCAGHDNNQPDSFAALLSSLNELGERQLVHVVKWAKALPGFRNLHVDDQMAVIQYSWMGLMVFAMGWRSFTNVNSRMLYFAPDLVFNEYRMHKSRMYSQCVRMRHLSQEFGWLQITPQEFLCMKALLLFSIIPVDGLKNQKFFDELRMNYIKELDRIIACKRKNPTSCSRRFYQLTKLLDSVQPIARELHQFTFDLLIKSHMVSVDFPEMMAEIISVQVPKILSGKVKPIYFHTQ

Cytochrome P450 2C9 = Cytochrome P450 2C9 (Homo sapiens, UniProt P11712)
Cytochrome P450 2C9, sequence (P11712 whole entry): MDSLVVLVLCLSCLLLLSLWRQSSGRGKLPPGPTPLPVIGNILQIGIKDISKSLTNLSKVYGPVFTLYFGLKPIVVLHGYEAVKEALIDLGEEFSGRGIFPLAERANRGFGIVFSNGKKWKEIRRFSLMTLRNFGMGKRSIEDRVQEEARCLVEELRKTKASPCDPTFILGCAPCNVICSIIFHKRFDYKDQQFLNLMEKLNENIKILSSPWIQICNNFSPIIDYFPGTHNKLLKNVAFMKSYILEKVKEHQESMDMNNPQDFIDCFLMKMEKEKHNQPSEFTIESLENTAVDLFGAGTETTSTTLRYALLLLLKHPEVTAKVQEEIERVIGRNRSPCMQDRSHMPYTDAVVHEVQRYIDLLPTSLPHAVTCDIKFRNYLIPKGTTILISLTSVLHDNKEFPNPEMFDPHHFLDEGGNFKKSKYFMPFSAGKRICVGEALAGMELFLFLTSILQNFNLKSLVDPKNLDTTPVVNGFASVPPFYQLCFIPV

Estrogen receptor = molecular target: T2, Estrogen receptor (Homo sapiens, UniProt P03372); experiment: biochemical
T2 sequence (P03372 whole entry): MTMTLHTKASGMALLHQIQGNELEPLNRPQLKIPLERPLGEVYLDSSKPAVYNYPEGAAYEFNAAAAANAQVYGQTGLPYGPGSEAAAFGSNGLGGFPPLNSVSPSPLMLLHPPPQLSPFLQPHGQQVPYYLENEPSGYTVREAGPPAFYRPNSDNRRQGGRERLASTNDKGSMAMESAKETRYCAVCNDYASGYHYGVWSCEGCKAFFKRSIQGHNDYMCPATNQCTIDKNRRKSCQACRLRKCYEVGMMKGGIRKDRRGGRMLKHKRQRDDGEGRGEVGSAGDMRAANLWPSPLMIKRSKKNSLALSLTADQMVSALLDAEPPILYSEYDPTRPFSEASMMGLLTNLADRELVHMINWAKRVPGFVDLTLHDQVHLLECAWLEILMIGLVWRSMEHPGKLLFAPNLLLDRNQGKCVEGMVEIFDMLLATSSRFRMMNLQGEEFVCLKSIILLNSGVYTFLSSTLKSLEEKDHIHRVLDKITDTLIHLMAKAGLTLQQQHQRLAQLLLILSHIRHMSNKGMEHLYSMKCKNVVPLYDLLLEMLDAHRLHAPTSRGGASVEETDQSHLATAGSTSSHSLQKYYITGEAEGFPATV

Cytochrome P450 1A2 = molecular target: T3, Cytochrome P450 1A2 (Homo sapiens, UniProt P05177)
T3 sequence (P05177 whole entry): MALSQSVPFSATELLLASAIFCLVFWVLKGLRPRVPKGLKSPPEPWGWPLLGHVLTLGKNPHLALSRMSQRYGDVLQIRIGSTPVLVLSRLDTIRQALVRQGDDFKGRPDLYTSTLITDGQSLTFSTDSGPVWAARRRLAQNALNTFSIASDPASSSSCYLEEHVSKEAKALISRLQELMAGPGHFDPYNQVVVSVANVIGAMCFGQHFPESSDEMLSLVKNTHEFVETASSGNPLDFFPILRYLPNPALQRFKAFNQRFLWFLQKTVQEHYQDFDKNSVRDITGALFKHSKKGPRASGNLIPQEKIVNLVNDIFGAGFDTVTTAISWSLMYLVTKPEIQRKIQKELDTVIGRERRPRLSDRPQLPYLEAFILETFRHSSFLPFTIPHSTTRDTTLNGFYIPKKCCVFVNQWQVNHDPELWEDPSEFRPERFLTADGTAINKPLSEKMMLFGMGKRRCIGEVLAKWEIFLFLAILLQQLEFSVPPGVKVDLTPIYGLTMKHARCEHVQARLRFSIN

Glucocorticoid receptor = molecular target: T4, Glucocorticoid receptor (Homo sapiens, UniProt P04150); experiment: biochemical
T4 sequence (P04150 whole entry): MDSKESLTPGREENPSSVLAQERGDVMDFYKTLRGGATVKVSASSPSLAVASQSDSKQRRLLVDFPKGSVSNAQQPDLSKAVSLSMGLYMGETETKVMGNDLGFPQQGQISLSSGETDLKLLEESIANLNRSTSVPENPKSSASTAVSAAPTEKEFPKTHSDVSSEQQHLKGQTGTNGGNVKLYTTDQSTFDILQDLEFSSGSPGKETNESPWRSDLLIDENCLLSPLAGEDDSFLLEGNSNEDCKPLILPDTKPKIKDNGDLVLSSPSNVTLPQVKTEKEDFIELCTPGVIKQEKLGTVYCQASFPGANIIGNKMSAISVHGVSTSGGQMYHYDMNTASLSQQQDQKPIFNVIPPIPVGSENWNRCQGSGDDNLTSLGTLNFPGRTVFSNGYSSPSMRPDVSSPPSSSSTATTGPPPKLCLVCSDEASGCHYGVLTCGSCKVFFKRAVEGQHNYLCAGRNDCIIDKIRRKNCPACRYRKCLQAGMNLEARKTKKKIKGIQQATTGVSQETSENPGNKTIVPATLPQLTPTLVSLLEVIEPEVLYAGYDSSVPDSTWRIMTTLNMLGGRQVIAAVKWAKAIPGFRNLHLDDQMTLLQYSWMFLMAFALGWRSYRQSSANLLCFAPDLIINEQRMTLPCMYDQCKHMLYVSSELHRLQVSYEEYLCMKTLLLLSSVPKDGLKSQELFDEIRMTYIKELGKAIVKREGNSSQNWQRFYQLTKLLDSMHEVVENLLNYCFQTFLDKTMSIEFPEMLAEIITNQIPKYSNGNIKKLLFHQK

Cytochrome P450 2C19, sequence (P33261 whole entry): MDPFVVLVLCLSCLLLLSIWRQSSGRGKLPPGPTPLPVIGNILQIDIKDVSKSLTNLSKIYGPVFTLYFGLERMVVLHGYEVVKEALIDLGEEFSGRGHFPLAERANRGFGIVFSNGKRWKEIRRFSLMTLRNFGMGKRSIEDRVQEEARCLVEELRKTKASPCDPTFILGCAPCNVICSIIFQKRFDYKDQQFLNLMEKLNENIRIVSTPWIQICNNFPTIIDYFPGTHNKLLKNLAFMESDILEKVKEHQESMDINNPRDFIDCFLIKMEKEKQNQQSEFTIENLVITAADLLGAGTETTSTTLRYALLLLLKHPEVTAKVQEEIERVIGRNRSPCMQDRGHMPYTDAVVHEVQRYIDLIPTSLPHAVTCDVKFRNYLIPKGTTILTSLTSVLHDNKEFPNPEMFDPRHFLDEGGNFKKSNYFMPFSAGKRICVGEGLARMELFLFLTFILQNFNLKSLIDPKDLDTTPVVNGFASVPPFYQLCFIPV
Cytochrome P450 3A4, sequence (P08684 whole entry): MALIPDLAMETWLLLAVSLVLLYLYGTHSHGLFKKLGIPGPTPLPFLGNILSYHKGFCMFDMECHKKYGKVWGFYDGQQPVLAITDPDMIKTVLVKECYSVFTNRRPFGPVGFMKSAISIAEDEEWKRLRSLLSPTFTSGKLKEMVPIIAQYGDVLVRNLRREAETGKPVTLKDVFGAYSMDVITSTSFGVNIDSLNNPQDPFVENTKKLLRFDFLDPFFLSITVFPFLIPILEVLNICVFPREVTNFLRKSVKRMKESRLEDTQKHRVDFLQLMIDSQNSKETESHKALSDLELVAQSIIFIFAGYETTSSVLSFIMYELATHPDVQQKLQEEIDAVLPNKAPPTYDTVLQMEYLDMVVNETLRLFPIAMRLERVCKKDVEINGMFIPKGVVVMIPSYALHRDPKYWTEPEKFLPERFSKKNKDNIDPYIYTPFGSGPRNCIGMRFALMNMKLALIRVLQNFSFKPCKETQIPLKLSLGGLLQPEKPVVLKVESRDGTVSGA

For CC[C@H](C)[C@@H](CO[C@@H](Cc1ccccc1)C(=O)N[C@@H](CCS(C)(=O)=O)C(=O)OC(C)C)NC[C@@H](N)CS, which IC50 (Cytochrome P450 3A4) is on record?
The IC50 was 3 µM.

CCOC(=O)C1=C(C)NC(C)=C(C(=O)OCC)C1c1ccccc1/C=C/C(=O)OC(C)(C)C [LACIDIPINE] was tested. Which IC50 (Cytochrome P450 2C19) did it give?
The IC50 was 2000 nM.

And the IC50 (Androgen receptor)?
The IC50 was 3.92 µM.

And the Ki (Androgen receptor)?
The Ki was 2610 nM.

What about the IC50 (Cytochrome P450 2C9) of the same molecule?
The IC50 was 2000 nM.

How did the IC50 (Cytochrome P450 2C19) turn out when C#C[C@]1(O)CC[C@H]2[C@@H]3[C@H](C)CC4=C(CCC(=O)C4)[C@H]3CC[C@@]21C [TIBOLONE] was run?
The IC50 was 3000 nM.

And the IC50 (Estrogen receptor)?
Its IC50 is 433 nM.

And the Ki (Estrogen receptor)?
Its Ki is 124 nM.

With CCN(CC)C(=S)SSC(=S)N(CC)CC as the molecule, how does the IC50 (Cytochrome P450 1A2) read?
Its IC50 is 4000 nM.

Which results are given for CCOc1cc(N)c(Cl)cc1C(=O)NCC1CN(Cc2ccc(F)cc2)CCO1 (configuration not stated) [MOSAPRIDE]?
IC50 (Cytochrome P450 2C19): 1000 nM; IC50 (Cytochrome P450 1A2): 400 nM; IC50 (Cytochrome P450 2C9): 1000 nM

For O=C(OC[C@H]1O[C@@H](OC(=O)c2cc(O)c(O)c(OC(=O)c3cc(O)c(O)c(O)c3)c2)[C@H](OC(=O)c2cc(O)c(O)c(OC(=O)c3cc(O)c(O)c(O)c3)c2)[C@@H](OC(=O)c2cc(O)c(O)c(OC(=O)c3cc(O)c(O)c(O)c3)c2)[C@@H]1OC(=O)c1cc(O)c(O)c(OC(=O)c2cc(O)c(O)c(O)c2)c1)c1cc(O)c(O)c(OC(=O)c2cc(O)c(O)c(O)c2)c1 [TANNIC ACID], which IC50 (Cytochrome P450 1A2) is on record?
Its IC50 is 919 nM.

What about the IC50 (Cytochrome P450 2C9) of the same molecule?
Its IC50 is 4610 nM.

Which results are given for CC(=O)O[C@]1(C(C)=O)CC[C@H]2[C@@H]3C[C@H](C)C4=CC(=O)CC[C@]4(C)[C@H]3CC[C@@]21C [MEDROXYPROGESTERONE ACETATE]?
IC50 (Glucocorticoid receptor): 19 nM; Ki (Glucocorticoid receptor): 8.64 nM

Which IC50 (Cytochrome P450 1A2) does the source give for C=CCc1ccc2c(c1)OCO2 [SAFROLE] here?
The IC50 was 10000 nM.
